Test results reported in a melting point compilation (Tetko et al.; mined from patent text by program, amines drawn as free bases though some values may be those of a salt).

Row | Structure (SMILES) | melting point [°C]
1 | CC(C)(C)OC(=O)[C@H]1C[C@@H](S(=O)(=O)c2ccccc2F)[C@@H](c2ccccc2F)N1 (racemic) | 202
2 | O=C(OO)c1ccc([N+](=O)[O-])cc1 | 251 to 252
3 | NCC(O)C1=CC2(CCCC2)c2ccccc21 (centres undefined) | 76 to 78
4 | CCc1cc(C(=O)OC(C)C)c2cc(C(C)C)cccc1-2 | 69 to 71
5 | Cc1cc(C(=O)c2ccc(Cl)cc2)ccc1[N+](=O)[O-] | 105 to 108
6 | CCOc1cc2c(cc1S(=O)(=O)NC(=O)NC)C(CNC(=O)N1CC(C)=C(CC)C1=O)CCO2 (centres undefined) | 187 to 188
7 | CN1CCCC1=NC(=O)Nc1cccc(C#N)c1 | 145 to 147
8 | CNc1cc(C=O)cc(S(N)(=O)=O)c1Oc1ccccc1 | 166 to 167
9 | COc1cc2c(cc1OC)CN(C(=O)C13CC4CC(CC(C4)C1)C3)CC2 | 151 to 155
10 | CCCCc1ncc(CNC(Cc2cccs2)C(=O)O)n1Cc1ccc(C(=O)O)cc1 (centres undefined) | 151 to 152
11 | Cc1cc2occc2c(Cl)n1 | 64.5 to 66
12 | Cc1cc(Nc2cc(-c3cnc4cc[nH]c4c3)cn3ccnc23)nn1CCO | 127 to 130
13 | CC(C)(C)C(=O)C=Cc1cccnc1 | 68 to 70
14 | O=C1C(CCO)Oc2cc([N+](=O)[O-])ccc2N1Cc1ccc([N+](=O)[O-])cc1 (centres undefined) | 100 to 104
15 | CCOc1ccc2c(c1)C(c1ccccc1)C(=O)N2 (centres undefined) | 125 to 130
16 | CC1CC(=O)NN=C1c1ccc2c(c1)N=CS2=O (centres undefined) | 317 to 319
17 | FC(F)(F)CNc1nc(Cl)nc(Cl)n1 | 115 to 118
18 | CN(C)Cc1ccc(Cn2ccc(OCc3ccc(F)cc3F)c(Br)c2=O)cc1 | 111 to 113
19 | CCOC(=O)C1CCC(C(=O)OCC)N1C(=O)C(N)Cc1c[nH]c2ccccc12 (centres undefined) | 144 to 149
20 | c1ccc(-c2nc3cc4oc(-c5ccccc5)nc4cc3o2)cc1 | 319 to 323
21 | CCc1c(Cl)ccc2c1C=C(C(=O)O)C(C(F)(F)F)O2 (centres undefined) | 172
22 | CCCNC(=O)CCc1ccc2ccn(Cc3ccc(C(=O)NS(=O)(=O)c4ccccc4C)cc3OC)c2c1 | 110
23 | CC1(C)SCCN(S(=O)(=O)c2ccc(-c3ccc(Br)cc3)cc2)C1C(=O)O (centres undefined) | 178 to 180
24 | Nc1ccc(N=Nc2ccccc2)cc1Cl | 152 to 153
25 | CCOC(=O)C1=C(c2ccccc2)Nc2n[nH]cc2C1c1ccccc1OC (centres undefined) | 195

Row | Structure (SMILES) | melting point [°C]
26 | Cc1noc(NS(=O)(=O)c2ccccc2-c2cccs2)c1C | 112 to 115
27 | O=C(Nc1ccc(Cc2nnn[nH]2)cc1)C(F)(F)C(F)(F)C(F)(F)C(F)(F)C(F)(F)C(F)(F)C(F)(F)F | 193 to 194
28 | Oc1ccc2c(c1O)OCC(c1cccc(F)c1)C2 (centres undefined) | 148 to 149
29 | CC(C)(C(=O)O)n1nc2ccc(NCCCN3CCC(OC(c4ccccc4)c4ccccc4)CC3)nn2c1=O | 181 to 185
30 | c1ccc2c(c1)c1ccccc1n2CCCCCCn1c2ccccc2c2ccccc21 | 124 to 126
31 | Cc1c(F)c(F)cc(C#N)c1Cl | 59 to 61
32 | CC1(c2ccc(C(O)C(C)(C)C)cc2)OCCO1 (centres undefined) | 75 to 80
33 | Cc1ccc(S(=O)(=O)CCOc2ccccc2OCCS(=O)(=O)c2ccc(C)cc2)cc1 | 95 to 96
34 | CCN1C(=O)CCC2=C1CCc1cc(F)ccc12 | 72
35 | CCCNC(=O)N1CC(Oc2ccc(C(F)(F)F)cc2)C1 | 119 to 120
36 | COc1ccc(C2=CCOCC2)cc1[N+](=O)[O-] | 117 to 120
37 | CCOCc1nc2c(N)nc3ccccc3c2n1CCOCC#Cc1ccccc1 | 111 to 112
38 | Nc1ncc(-c2cccc(Cl)c2Cl)c(Cl)n1 | 228 to 230
39 | COc1cc2c(c3c1OC(C)(C)C3)C(c1cccc(NS(=O)(=O)N(C)C)c1)=NC(C)(C)C2 | 134 to 136
40 | COc1ccc(C[C@H](C)NS(=O)(=O)c2ccccc2)cc1 | 74.5 to 76
41 | CN(c1cccc2cc(C(=O)O)[nH]c12)S(=O)(=O)c1ccccc1C(F)(F)F | 211 to 212
42 | C=CCOc1cc2c(cc1C)OC1(CC(C)(C)c3cc(O)c(C)cc3O1)CC2(C)C (centres undefined) | 143 to 144
43 | COc1cc(-c2ccc3cc4c(cc3c2C=O)OCO4)c([N+](=O)[O-])cc1OC | 225
44 | CN(Cc1ccc2c(Br)c(OC(Cc3ccccc3)C(=O)O)ccc2c1)C(=O)c1oc2ccccc2c1CCc1ccccc1 (centres undefined) | 87 to 90
45 | CCOc1ccc(-c2nc(=O)c3ccccc3s2)cn1 | 152 to 156
46 | N#CCOC(=O)c1ccc(C(c2ccccc2)(c2ccccc2)c2ccccc2)cn1 | 173 to 175
47 | CCc1cc(OCc2ccc(-c3ccccc3-c3nnn(C(c4ccccc4)(c4ccccc4)c4ccccc4)n3)cc2)c2c(n1)CCN(C(C)=O)C2 | 97 to 98
48 | Nc1c(Br)cc(Nc2ncnc3cnc(N4CCC(N)CC4)nc23)cc1Br | 204 to 206
49 | CCCc1nc(SC(F)F)c(C(=O)O)n1Cc1ccc(-c2ccccc2S(=O)(=O)NC(=O)NCc2ccccc2)cc1 | 150
50 | Cc1cccc(NC(=O)NCC(=O)N(CC(=O)N(C)c2ccc(F)c(F)c2)c2ccccc2)c1 | 163

Row | Structure (SMILES) | melting point [°C]
51 | c1ccc2c(c1)CCCC2N1CCCNCC1 (centres undefined) | 107 to 109
52 | CCc1ccc(S(=O)(=O)N(c2ccc(Cl)cc2[N+](=O)[O-])C(C)C)cc1 | 117 to 118
53 | COc1ccc(C(=O)CCC(=O)N[C@@H](Cc2ccccc2)C(=O)O)cc1 | 131 to 133
54 | CCSc1cc(C)nc(SCC)c1NC(=O)CCCCCCCCSc1nc2c(C)c(Cl)cc(C(C)C)c2o1 | 93 to 94
55 | CC(C)c1cc2nc(N)sc2cc1SC1=C(O)C[C@@](CCc2ccccc2)(C(C)C)OC1=O | 197 to 199
56 | O=C(c1ccccc1)c1ccc2c(c1)CC(C(=O)NCCO)C2 (centres undefined) | 106 to 107
57 | Cc1cc(Oc2c(Cl)cc(C(F)(F)F)cc2Cl)nn1C(=O)NCCCl | 116 to 118
58 | OCc1cc2cc(-c3ccsc3)ccc2o1 | 122 to 124
59 | O=[N+]([O-])c1ccc2c(c1)N=Cc1ccccc1O2 | 179 to 181
60 | CN1CCc2cccc3c4c(n(c23)CC1)CCC4 | 128 to 130
61 | Cc1nc2n(c(=O)c1CCN1CCN(c3noc4cc(F)ccc34)CC1)CCS2 | 193
62 | COc1cc(C(=O)C=Cc2ccc(Br)cc2)ccc1OC1CCCCO1 (centres undefined) | 142 to 145
63 | NC(=O)C1(Cl)CC2C3CC4C2C4C31 (centres undefined) | 124 to 126
64 | Brc1c(OCc2ccc3ccccc3n2)ccc2ccccc12 | 130 to 132
65 | Cc1cc(O)c(C2CCCCC2)cc1S(=O)c1cc(C2CCCCC2)c(O)cc1C | 151 to 153
66 | CN(CCSC(=O)Cc1ccccc1Nc1c(Cl)cccc1Cl)CC1(SN=O)CCCCC1 | 115 to 129
67 | COc1ccc2sc(C(N)=O)c(Sc3ccccc3)c2c1 | 194 to 196
68 | Cc1cc(C)cc(C(=O)N2CCN(C(=O)CCNC3CCN(Cc4ccccc4)CC3)C(c3ccc(Cl)c(Cl)c3)C2)c1 (centres undefined) | 51 to 54
69 | O=C(O)Cc1cc(-c2ccc(Cl)cc2)n(-c2ccc(OCc3ccc4ccccc4n3)cc2)n1 | 228 to 230
70 | CCCOC(=O)Nc1cccc(NC(=O)C=C(C)OC)c1 | 115
71 | CC(Cc1nc(-c2ccccc2)cc2ccccc12)C(=O)O (centres undefined) | 184
72 | CC(C)Oc1cc(-n2c(=O)c(F)c(C(F)(F)C(F)(F)F)n(C)c2=O)c(F)cc1Cl | 107 to 109
73 | CCN(CC)Cc1cc(Nc2snc3ccccc23)ccc1O | 164 to 165
74 | CCc1ccccc1-c1nc2c3ccccc3ccn2c1N=Cc1ccc(C)cc1 | 158 to 160
75 | CCOC(=O)c1cn(CC)c2cc(-c3csc(CN(CCOC(C)=O)C(C)=O)n3)c(F)cc2c1=O | 148 to 152

Row | Structure (SMILES) | melting point [°C]
76 | COc1cc(I)c(F)cc1Cl | 90 to 94
77 | CCCOc1cc2c(=O)cc(C(=O)O)[nH]c2ccc1=O | > 250
78 | CCCC(=O)Nc1n[nH]c2c(N)cc(C)nc12 | 170 to 171
79 | O=C(c1ccc(Br)cc1)N1CC(=O)N2CCc3ccccc3C2C1 (centres undefined) | 204 to 206
80 | O=C1OC(=O)c2c1cccc2N1C(=O)CCCC1=O | 234 to 236
81 | CCOC(=O)C(=CNc1ccnc(-c2ccccn2)n1)C(=O)OCC | 162 to 164
82 | CC(C)(C)c1nc(/C=C/c2cn(-c3ccccc3)nc2O)cs1 | 209 to 211
83 | CCCSc1ncc(C(=O)N[C@@H](C)C(=O)O)n1Cc1ccccc1Cl | 173 to 176
84 | CCCc1c(C(=O)NCc2ccc3cc(OCC(=O)O)ccc3c2)cnn1-c1ccc(Cl)cc1 | 203 to 204
85 | COc1cc2c(c3oc(C(=O)O)cc(=O)c13)CCC(C)(C)O2 | 225 to 226
86 | COC(=O)C1CCSC(C)(C)C(=O)N1 (centres undefined) | 172 to 174
87 | CCOc1ccc(N2CCN(c3c(C)c4c(c(OC)c3C)OC(C)C4)CC2)cc1 (centres undefined) | 117 to 119
88 | Cc1cc(OCCOc2ccc3ccccc3c2)ccc1C(=O)C(=O)O | 129 to 131
89 | C=C(C)COc1cc(C)c2c(c1C)CC(C)(C)N2C=O | 83 to 95
90 | CCn1nc(C)c(NC(N)=S)c1C | 248
91 | Nc1cc(CBr)nn1-c1c(Cl)cc(C(F)(F)F)cc1Cl | 220
92 | O=C(NCCCc1ccncc1)N(CCC12CC3CC(CC(C3)C1)C2)CC(F)(F)F | 106 to 107
93 | COC(=O)CNC(=O)c1cc(Cl)nc(Cl)c1 | 140 to 141
94 | c1ccc(-c2cn3c(nc4ccccc43)s2)nc1 | 222 to 224
95 | COc1cc(C=C(C)[N+](=O)[O-])ccc1OCC(=O)O | 116 to 117
96 | Cc1c(C(=O)Nc2nncs2)nnn1Cc1ccc(Cl)c(Cl)c1 | 216
97 | CSc1nn2c(N3CCOCC3)cc(C)nc2c1S(=O)(=O)c1ccccc1 | 206 to 208
98 | COc1ccc(C(=O)c2cc(-c3ccc(NC(C)=O)cc3)c(N3CCOCC3)s2)cc1 | 198
99 | COc1cccc2c1OC(CN1CCC(NC(=O)Nc3ccccc3)CC1)CC2 (centres undefined) | 163
